Experimental data reported in ChEMBL document CHEMBL5360525, “Design, synthesis and anti-tumor efficacy of novel phenyl thiazole/triazole derivatives as selective TrkA inhibitors” (Bioorg Med Chem, 2022).
Activity calls are given as the source filed them. No cut-off for these calls is given here.

Columns and labels:
KM12 [1] = assay: Antiproliferative activity against human KM12 cells assessed as reduction in cell viability for 72 hrs by MTT assay; conditions: KM12, 72 h
A549 = assay: Antiproliferative activity against human A549 cells assessed as reduction in cell viability for 72 hrs by MTT assay; conditions: A549, 72 h
KM12 [2] = assay: Inhibition of colony formation in human KM12 cells assessed as decrease in colony count at 75 nM incubated for 72 hrs by crystal violet staining based assay; format: functional, cell-based
[3] = molecular target: BDNF/NT-3 growth factors receptor (Homo sapiens, UniProt Q16620); assay: Inhibition of TRKB (unknown origin) incubated for 1 hr by mobility shift assay
[4] = molecular target: High affinity nerve growth factor receptor (Homo sapiens, UniProt P04629); assay: Inhibition of TRKA (unknown origin) incubated for 1 hr by mobility shift assay
[5] = molecular target: NT-3 growth factor receptor (Homo sapiens, UniProt Q16288); assay: Inhibition of TRKC (unknown origin) incubated for 1 hr by mobility shift assay
Sequence of NT-3 growth factor receptor (Q16288 whole entry): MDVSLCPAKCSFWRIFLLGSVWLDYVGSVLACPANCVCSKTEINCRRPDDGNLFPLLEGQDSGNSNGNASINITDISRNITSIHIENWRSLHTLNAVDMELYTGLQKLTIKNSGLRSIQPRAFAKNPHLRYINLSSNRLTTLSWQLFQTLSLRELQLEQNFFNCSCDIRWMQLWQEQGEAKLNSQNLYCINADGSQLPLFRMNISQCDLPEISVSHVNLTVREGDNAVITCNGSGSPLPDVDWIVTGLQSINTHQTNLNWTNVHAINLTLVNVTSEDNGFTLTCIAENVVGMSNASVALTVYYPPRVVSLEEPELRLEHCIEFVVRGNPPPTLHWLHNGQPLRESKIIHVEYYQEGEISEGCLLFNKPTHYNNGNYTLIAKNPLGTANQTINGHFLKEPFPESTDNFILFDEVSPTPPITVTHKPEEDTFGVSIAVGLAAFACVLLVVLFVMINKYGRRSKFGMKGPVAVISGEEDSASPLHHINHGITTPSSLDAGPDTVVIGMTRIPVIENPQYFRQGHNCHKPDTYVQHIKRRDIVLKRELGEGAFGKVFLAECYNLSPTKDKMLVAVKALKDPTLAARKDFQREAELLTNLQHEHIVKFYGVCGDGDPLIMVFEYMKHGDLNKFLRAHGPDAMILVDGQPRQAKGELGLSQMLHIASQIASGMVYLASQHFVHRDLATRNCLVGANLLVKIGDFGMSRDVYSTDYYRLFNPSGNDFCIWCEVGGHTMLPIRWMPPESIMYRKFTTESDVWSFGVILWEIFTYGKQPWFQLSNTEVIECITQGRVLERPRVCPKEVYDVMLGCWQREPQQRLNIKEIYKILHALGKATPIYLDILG

Sequence of High affinity nerve growth factor receptor (P04629 whole entry): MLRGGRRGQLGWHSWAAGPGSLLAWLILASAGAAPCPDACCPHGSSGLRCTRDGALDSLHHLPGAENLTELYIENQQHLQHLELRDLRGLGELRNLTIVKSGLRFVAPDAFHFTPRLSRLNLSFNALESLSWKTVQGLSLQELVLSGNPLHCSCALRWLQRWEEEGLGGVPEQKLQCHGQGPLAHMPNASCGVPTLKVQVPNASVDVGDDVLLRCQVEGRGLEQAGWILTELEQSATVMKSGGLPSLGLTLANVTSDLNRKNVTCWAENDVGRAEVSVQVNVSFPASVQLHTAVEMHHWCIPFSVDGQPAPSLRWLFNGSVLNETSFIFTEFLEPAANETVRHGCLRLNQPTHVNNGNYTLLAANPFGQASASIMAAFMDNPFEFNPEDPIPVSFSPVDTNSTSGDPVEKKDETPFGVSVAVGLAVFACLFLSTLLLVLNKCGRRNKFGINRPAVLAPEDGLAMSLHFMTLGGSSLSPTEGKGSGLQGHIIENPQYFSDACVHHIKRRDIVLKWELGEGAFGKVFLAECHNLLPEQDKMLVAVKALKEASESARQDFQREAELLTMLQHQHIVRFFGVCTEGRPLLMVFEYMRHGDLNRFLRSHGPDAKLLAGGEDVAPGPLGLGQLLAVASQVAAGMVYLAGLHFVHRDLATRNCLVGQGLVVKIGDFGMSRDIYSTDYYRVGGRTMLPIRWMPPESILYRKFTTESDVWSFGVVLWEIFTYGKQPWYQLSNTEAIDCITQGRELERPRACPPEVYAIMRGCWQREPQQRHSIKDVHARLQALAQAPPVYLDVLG
Sequence of BDNF/NT-3 growth factors receptor (Q16620 whole entry): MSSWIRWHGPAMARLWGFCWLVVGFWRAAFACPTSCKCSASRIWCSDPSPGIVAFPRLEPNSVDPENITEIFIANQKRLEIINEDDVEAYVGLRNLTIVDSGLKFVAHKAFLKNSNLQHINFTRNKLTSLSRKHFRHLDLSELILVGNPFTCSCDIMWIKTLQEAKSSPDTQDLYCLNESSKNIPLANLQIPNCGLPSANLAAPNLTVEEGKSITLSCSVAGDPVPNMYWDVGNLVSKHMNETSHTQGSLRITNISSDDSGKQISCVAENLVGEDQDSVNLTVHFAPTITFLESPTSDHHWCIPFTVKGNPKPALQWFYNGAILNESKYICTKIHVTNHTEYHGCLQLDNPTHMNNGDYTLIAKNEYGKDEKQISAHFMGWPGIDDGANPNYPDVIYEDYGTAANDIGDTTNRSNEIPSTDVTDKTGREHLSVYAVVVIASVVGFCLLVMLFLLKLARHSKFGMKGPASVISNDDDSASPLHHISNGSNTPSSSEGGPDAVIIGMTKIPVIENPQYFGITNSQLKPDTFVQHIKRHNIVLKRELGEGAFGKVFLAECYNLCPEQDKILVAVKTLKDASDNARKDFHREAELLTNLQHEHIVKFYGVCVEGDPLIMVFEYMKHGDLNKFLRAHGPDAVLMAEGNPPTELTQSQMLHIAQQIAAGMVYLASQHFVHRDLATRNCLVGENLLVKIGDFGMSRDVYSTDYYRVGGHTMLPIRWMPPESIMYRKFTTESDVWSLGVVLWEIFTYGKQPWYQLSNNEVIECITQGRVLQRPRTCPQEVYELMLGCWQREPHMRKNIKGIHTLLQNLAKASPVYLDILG

| SMILES | IC50 (A549) [µM] | IC50 [3] [µM] | IC50 [4] [µM] | IC50 [5] [µM] | IC50 (KM12 [1]) [µM] | inhibition (KM12 [2]) |
| --- | --- | --- | --- | --- | --- | --- |
| O=C(Nc1cccc(-n2cc(CN3CCSCC3)nn2)c1)c1cc(F)cc(F)c1 | > 10 | – | – | – | 12.3 | – |
| O=C(Nc1cccc(-n2cc(CNC3CCCC3)nn2)c1)c1cc(F)cc(F)c1 | > 10 | – | – | – | 3.83 | – |
| CN1CCN(c2ccc(C(=O)Nc3n[nH]c4ccc(Cc5cc(F)cc(F)c5)cc34)c(NC3CCOCC3)c2)CC1 | – | – | – | – | – | Active |
| O=C(Nc1cccc(-n2cc(CN3CCS(=O)(=O)CC3)nn2)c1)c1cc(F)cc(F)c1 | > 10 | – | – | – | 12.2 | – |
| CN1CCN(c2ccc(NCc3cn(-c4cccc(CNc5cc(F)cc(F)c5)c4)nn3)cc2C(=O)N2CCCC2)CC1 | > 10 | – | – | – | 0.95 | – |
| O=C(Nc1cccc(-c2csc(N3CCC(O)CC3)n2)c1)c1cc(F)cc(F)c1 | 0.21 | – | – | – | 7.57 | – |
| O=C(Nc1cccc(-n2cc(CN3CCCC3)nn2)c1)c1cc(F)cc(F)c1 | > 10 | – | – | – | 8.02 | – |
| CN(C)Cc1cn(-c2cccc(NC(=O)c3cc(F)cc(F)c3)c2)nn1 | > 10 | – | – | – | 17.5 | – |
| O=C(Nc1cccc(-n2cc(CNC3CC3)nn2)c1)c1cc(F)cc(F)c1 | > 10 | – | – | – | 5.21 | – |
| CN1CCN(c2ccc(NCc3cn(-c4cccc(NCc5cc(F)cc(F)c5)c4)nn3)cc2C(=O)N2CCOCC2)CC1 | > 10 | – | – | – | 0.63 | – |

More lines, main results first:

| IC50 (A549) [µM] | IC50 [3] [µM] | IC50 [4] [µM] | IC50 [5] [µM] | SMILES | IC50 (KM12 [1]) [µM] | inhibition (KM12 [2]) |
| --- | --- | --- | --- | --- | --- | --- |
| 0.27 | – | – | – | O=C(Nc1cccc(-c2csc(N3CCOCC3)n2)c1)c1cc(F)cc(F)c1 | 9.63 | – |
| 0.72 | – | – | – | CN1CCN(c2nc(-c3cccc(NC(=O)c4cc(F)cc(F)c4)c3)cs2)CC1 | 14 | – |
| 0.55 | – | – | – | O=C(Nc1cccc(-c2csc(NCCO)n2)c1)c1cc(F)cc(F)c1 | 17.1 | – |
| 1.21 | – | – | – | CN(C)c1nc(-c2cccc(NC(=O)c3cc(F)cc(F)c3)c2)cs1 | 28.8 | – |
| 0.51 | > 0.1 | > 0.1 | > 0.1 | O=C(Nc1cccc(-c2csc(N3CCN(CCO)CC3)n2)c1)c1cc(F)cc(F)c1 | 7.25 | – |
| > 10 | – | – | – | CN1CCN(c2ccc(NCc3cn(-c4cccc(CNc5cc(F)cc(F)c5)c4)nn3)cc2C(=O)N2CCCCC2)CC1 | 0.76 | – |
| 0.17 | – | – | – | O=C(Nc1cccc(-c2csc(N3CCCC3)n2)c1)c1cc(F)cc(F)c1 | 16.5 | – |
| 0.39 | – | – | – | O=C(Nc1cccc(-c2csc(N3CCC[C@H]3CO)n2)c1)c1cc(F)cc(F)c1 | 8.16 | – |
| > 10 | – | – | – | CN1CCN(c2ccc(NCc3cn(-c4cccc(CNc5cc(F)cc(F)c5)c4)nn3)cc2C(=O)N(C)C)CC1 | 1.71 | – |
